The subject of one experiment is 786-O-Hif-Luc cells. As to the kind of experiment: Luciferase Assay (HIF responsive elements reporter).
Experiment [1] concerns the target T1, HIF-2α HIS TAG-PASB Domain (Homo sapiens, UniProt Q99814).
T1 construct: 100 nM HIF-2α HIS TAG-PASB Domain
As to the kind of experiment: HIF-2α Scintillation Proximity Assay (SPA). In kind it is binding. A digest of the protocol: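 IC50 values rest on percent inhibition, where the sample signal is scaled between high and low controls. Wells contain about 100 μL: compound dispensed as 2 μL of DMSO solution, 88 μL protein-probe mix and 10 μL of beads.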
(In a scintillation proximity assay essentially only radioactivity close to the scintillant gives light.)

Setting [2] is: read-out: Mean Luciferase EC50 (nM), 786-O-Hif-Luc cells.
[3] abbreviates: read-out: Scintillation Proximity Assay IC50.

Each structure is given as a SMILES string. Like-named read-outs stand apart in the source and are kept apart here.

This passage reports EC50 and IC50 results from patent publication US10278942B2 (PELOTON THERAPEUTICS, INC., priority 2015, dated 2019).

T1 sequence (Q99814 240-350 limits assumed): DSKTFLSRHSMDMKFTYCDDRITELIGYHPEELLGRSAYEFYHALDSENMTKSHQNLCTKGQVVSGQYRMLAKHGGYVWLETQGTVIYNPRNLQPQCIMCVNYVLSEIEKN
Method for 786-O-Hif-Luc cells: A pool of infected cells were then selected against 2 μg/mL of puromycin (P8833, Sigma) for 10 days followed by limited dilution to select single clones. […] Each concentration was tested in triplicate. After about 24 hours, luciferase activity was determined using ONE-Glo Luciferase Assay Reagent (E6110, Promega) following the manufacturer's recommended procedure. EC50 were calculated using Dotmatics software.

`N#Cc1cc(F)cc(Oc2ccc3c(c2F)C(O)C(F)(F)S3(=O)=O)c1` (stereo not shown) [Compound 434]: the EC50 – broadly, the concentration needed to bring the measured effect to its halfway point – with 786-O-Hif-Luc cells (setting [2]) lay within 250 to 1000 nM. Moreover, in experiment [1] (setting [3]), the IC50 (as a rule, the midpoint of a concentration-inhibition curve) was 250 to 1000 nM.

Regarding `CS(=O)(=O)c1ccc(OC[C@@H]2C[C@@H]2C#N)c2c1[C@H](O)C(F)(F)[C@@H]2F` [Compound 764], the concentration for a half-maximal effect (EC50) with 786-O-Hif-Luc cells (setting [2]) is more than 1000 nM. The IC50 in experiment [1] (setting [3]) was more than 1000 nM.

Consider `CCCOc1ccc(C(F)(F)F)c2c1CC(F)(F)/C2=N\O` [Compound 703], for which the concentration giving a half-maximal response (EC50) in the experiment with 786-O-Hif-Luc cells (setting [2]) is more than 1000 nM. The IC50 in experiment [1] (setting [3]) lay in the range of 250 to 1000 nM.

Consider `OC1c2c(C(F)F)ccc(OCC(F)F)c2CC1(F)F` (stereo not shown) [Compound 586], for which the EC50 in the experiment on 786-O-Hif-Luc cells (setting [2]) was more than 1000 nM. Besides, the IC50 in experiment [1] (setting [3]) fell in the range of 50 to 249 nM.

As to `O=S1(=O)c2ccc(Oc3cc(F)cc(Cl)c3)c(Br)c2[C@@H](O)C1(F)F` [Compound 403], the EC50 in the experiment on 786-O-Hif-Luc cells (read-out: Mean Luciferase EC50 (nM)) was less than 50 nM. For the same compound, in experiment [1] (Scintillation Proximity Assay IC50 (nM)), the IC50 was less than 50 nM.

For the compound `O=S1(=O)c2ccc(Oc3cncc(Cl)c3)c(Cl)c2[C@@H](O)C1(F)F` [Compound 432], the half-maximal effective concentration (EC50) with 786-O-Hif-Luc cells (setting [2]) lay within 250 to 1000 nM. Besides, the half-inhibitory concentration (IC50) in experiment [1] (setting [3]) is 250 to 1000 nM.

As for `COCC(C)Oc1ccc(S(=O)(=O)C(F)(F)F)c2c1CC(F)(F)C2O` (stereo not shown) [Compound 594], the EC50 in the experiment with 786-O-Hif-Luc cells (setting [2]) was 50 to 249 nM. The IC50 in experiment [1] (setting [3]) is less than 50 nM.

As for `CC(C)(C#N)COc1ccc(S(C)(=O)=O)c2c1[C@@H](F)C(F)(F)[C@H]2O` [Compound 752], the EC50 with 786-O-Hif-Luc cells (setting [2]) was more than 1000 nM. Besides, in experiment [1] (setting [3]), the IC50 is more than 1000 nM.

On to `COCCOc1ccc(S(=O)(=O)C(F)(F)F)c2c1CC(F)(F)C2O` (stereo not shown) [Compound 595], for which, in the experiment with 786-O-Hif-Luc cells (setting [2]), the EC50 was in the range of 250 to 1000 nM. Also, in experiment [1] (setting [3]), the IC50 was in the range of 250 to 1000 nM.

For the compound `N#Cc1cc(F)cc(Oc2ccc(S(=O)(=O)C(F)F)cc2C#N)c1` [Compound 134], the EC50 in the experiment on 786-O-Hif-Luc cells (setting [2]) was more than 1000 nM. Besides, in experiment [1] (setting [3]), the concentration for half-maximal inhibition (IC50) lay within 250 to 1000 nM.

Consider `CS(=O)(=NC#N)c1ccc(Oc2cc(F)cc(C#N)c2)c2c1[C@H](O)[C@H](F)C2` (stereo partly shown) [Compound 302], for which, in the experiment with 786-O-Hif-Luc cells (setting [2]), the EC50 is 50 to 249 nM. Besides, the IC50 in experiment [1] (setting [3]) lay within 50 to 249 nM.

For the compound `N#Cc1cnn(Cc2ccc(S(=O)(=O)C(F)(F)F)c3c2CC(F)(F)[C@H]3O)c1` [Compound 538], in the experiment with 786-O-Hif-Luc cells (setting [2]), the EC50 is more than 1000 nM. The IC50 in experiment [1] (setting [3]) was more than 1000 nM.

`CCOc1ccc(S(=O)(=O)C(F)(F)F)c2c1CC(F)(F)C2O` (stereo not shown) [Compound 591]: the EC50 with 786-O-Hif-Luc cells (setting [2]) lay within 250 to 1000 nM. The IC50 in experiment [1] (setting [3]) lay within 250 to 1000 nM.

As to `O=S(=O)(c1ccc(-c2cc(F)cc(Cl)c2)c2c1[C@H](O)C(F)(F)C2)C(F)(F)F` [Compound 557], the EC50 with 786-O-Hif-Luc cells (setting [2]) lay within 250 to 1000 nM. The half-maximal inhibitory concentration (IC50) in experiment [1] (setting [3]) is less than 50 nM.

In the case of `O=S(=O)(c1ccc(Oc2cc(F)cc(F)c2)c2c1CCC2)C(F)F` [Compound 20], the EC50 with 786-O-Hif-Luc cells (setting [2]) is more than 1000 nM. Moreover, the IC50 in experiment [1] (setting [3]) is more than 1000 nM.

As for `N#Cc1cncc(Oc2ccc(S(=N)(=O)C(F)(F)F)c3c2CC(F)(F)[C@H]3O)c1` (stereo partly shown) [Compound 314], the EC50 with 786-O-Hif-Luc cells (setting [2]) was 50 to 249 nM. Moreover, the IC50 in experiment [1] (setting [3]) is less than 50 nM.

As for `O=S(=O)(c1ccc(Cc2ccccc2)c2c1C(O)C(F)(F)C2)C(F)(F)F` (stereo not shown) [Compound 511], the concentration giving a half-maximal response (EC50) with 786-O-Hif-Luc cells (setting [2]) is more than 1000 nM. Besides, the IC50 in experiment [1] (setting [3]) lay within 250 to 1000 nM.

As for `CS(=O)(=O)c1ccc(OCC2CC2)c2c1[C@H](O)C(F)(F)C2` [Compound 779], in the experiment with 786-O-Hif-Luc cells (setting [2]), the EC50 is more than 1000 nM. Besides, the IC50 in experiment [1] (setting [3]) is more than 1000 nM.

With `O=S(=O)(c1ccc(Oc2cc(F)cc(Cl)c2)c(Br)c1CNCc1ccccc1)C(F)(F)F` [Compound 110], the EC50 in the experiment with 786-O-Hif-Luc cells (setting [2]) was more than 1000 nM. Also, the IC50 in experiment [1] (setting [3]) is more than 1000 nM.

As to `O=S(=O)(c1ccc(Oc2cncc(Cl)c2)c2c1[C@H](O)CC2)C(F)F` [Compound 3], the 50% effective concentration (EC50) in the experiment with 786-O-Hif-Luc cells (setting [2]) fell in the range of 250 to 1000 nM. In experiment [1] (setting [3]), the IC50 lay within 250 to 1000 nM.

Turning to `N#Cc1cccc(Oc2ccc3c(c2Br)[C@@H](O)C(F)(F)S3(=O)=O)c1` [Compound 430], the EC50 in the experiment with 786-O-Hif-Luc cells (setting [2]) is less than 50 nM. In addition, in experiment [1] (setting [3]), the IC50 is less than 50 nM.

Take `N#Cc1cc(F)cc(Oc2ccc(S(=O)(=O)C(F)F)c3c2CC(F)(F)[C@H]3N)c1` [Compound 207]: the EC50 in the experiment with 786-O-Hif-Luc cells (setting [2]) is 250 to 1000 nM. For the same compound, the IC50 in experiment [1] (setting [3]) was in the range of 250 to 1000 nM.

As for `O=S1(=O)c2ccc(Oc3cncc(F)c3)c(Br)c2[C@@H](O)C1(F)F` [Compound 423], the EC50 in the experiment with 786-O-Hif-Luc cells (setting [2]) lay within 50 to 249 nM. Also, in experiment [1] (setting [3]), the IC50 is 250 to 1000 nM.

For the compound `O=S(=O)(c1ccc(Cn2cncn2)c2c1[C@H](O)C(F)(F)C2)C(F)(F)F` [Compound 534], in the experiment with 786-O-Hif-Luc cells (setting [2]), the EC50 was more than 1000 nM. Also, the IC50 in experiment [1] (setting [3]) is more than 1000 nM.

`N#CN=S1(=O)CC(O)c2c1ccc(Oc1cc(F)cc(F)c1)c2C(F)F` (stereo not shown) [Compound 394]: the EC50 in the experiment on 786-O-Hif-Luc cells (setting [2]) was more than 1000 nM. Also, in experiment [1] (setting [3]), the IC50 is more than 1000 nM.

`CS(=O)(=O)c1ccc(Oc2cc(F)cc(C#N)c2)c2c1[C@H](O)C(F)(F)[C@H]2F` [Compound 293]: the EC50 in the experiment on 786-O-Hif-Luc cells (setting [2]) was in the range of 250 to 1000 nM. Also, the IC50 in experiment [1] (setting [3]) fell in the range of 250 to 1000 nM.
